Structures can show the parent of a compound that is named as a salt. A value given as a limit tells only on which side of the number the result lay.

The results in this text go back to patent US20250066389A1, “HETEROCYCLIC AMIDES AND METHODS OF USING THE SAME” (Rgenta Therapeutics, Inc., priority 2021, published 2025).

The test has as its system PMS1. In words: Mini-Gene Reporter Assay—PMS1 (firefly luciferase mini-gene reporter transiently transfected into HEK293 cells). The settings on record: Homo sapiens, mini-gene firefly luciferase reporter in HEK293 cells; for activation at 5 µM: read-out: PMS1 % Effect at 5 uM. The format is cell-based. From the text: Example 76. Mini-Gene Reporter Assay—PMS1
Mini-gene reporter constructs for each target site can be constructed by first PCR amplifying the region-of-interest including the sequence of the alternatively skipped, sequences of the immediate upstream and downstream introns, and sequences of the immediate upstream and downstream exons. Then the 3′ end of the amplified sequence can be ligated to a firefly luciferase reporter gene and cloned into the pcDNA3.1 vector backbone. The final reporter construct can be transiently transfected into HEK293 cells using Lipofectamine 3000 transfection reagents. Compounds that can induce the inclusion of the skipped exon in the reporter construct would increase the reporter firefly luciferase activity.
Test compounds may be diluted in duplicates and dispensed into an assay plate. Transient mini-gene reporter cell line stock is resuspended and dispensed into the assay plate. Assay plates are then centrifuged and incubated. A luciferase reagent (e.g. ONE-Glo firefly luciferase reagent from Promega®) may be added to the assay plate and the luminescence (RLU) signals recorded. EC50 values may be determined by curve fitting in Levenberg-Marquardt algorithm.
In Table D below, A indicates a IC50 (μM)<1 μM, B indicates a IC50 (μM) 1 μM to <10 μM, and C indicates a IC50 (μM) 10 μM to <50 μM. In Table D below, A indicates a >75% Effect at 5 μM μM. B indicates a 50 to <75% Effect at 5 μM μM, and C indicates a <50% Effect at 5 μM.
(In general: A reporter such as luciferase makes a cellular process visible.)

On to `Cc1cn2cc(C(=O)Nc3ccc(N4CCNCC4)cn3)c(OC3CCC3)cc2n1` [Compound 128, 7-cyclobutoxy-2-methyl-N-(5-(piperazin-1-yl)pyridin-2-yl) imidazo[1,2-a]pyridine-6-carboxamide hydrochloride], for which the IC50 (commonly the midpoint of a concentration-inhibition curve) is below 1 µM.

In turn, `Cc1cn2cc(C(=O)Nc3ccc(N4CCNCC4)cn3)c(OC(C)C)cc2n1` [Compound 129, 7-isopropoxy-2-methyl-N-(5-(piperazin-1-yl)pyridin-2-yl)imidazo[1,2-a]pyridine-6-carboxamide hydrochloride] returned an IC50 of 1 to 10 µM. `CCOc1cc2nc(C)cn2cc1C(=O)Nc1ccc(N2CCNCC2)cn1` [Compound 130, 7-ethoxy-2-methyl-N-(5-(piperazin-1-yl)pyridin-2-yl) imidazo[1,2-a]pyridine-6-carboxamide hydrochloride]: the IC50 is below 1 µM.

In the case of `COc1cc2nc(C)cn2cc1C(=O)Nc1ccc(N2CCC3NCCCC3C2)cc1F` (stereo not drawn) [Compound 131, N-(2-fluoro-4-(octahydro-1,6-naphthyridin-6(2H)-yl)phenyl)-7-methoxy-2-methylimidazo[1,2-a]pyridine-6-carboxamide], the activation at 5 µM was 50 to 75%. In the case of `COc1cc2nc(C)cn2cc1C(=O)Nc1ccc(N2CCC3(CCCN3)CC2)cc1F` [Compound 132, N-(2-fluoro-4-(1,8-diazaspiro[4.5]decan-8-yl)phenyl)-7-methoxy-2-methylimidazo[1,2-a]pyridine-6-carboxamide], the IC50 is below 1 µM. Still for that read-out and setting: with `COc1cc2nc(C)cn2cc1C(=O)Nc1ccc(N2CCC3(CC2)COCCN3)cc1F` [Compound 133, N-(2-fluoro-4-(4-oxa-1,9-diazaspiro[5.5]undecan-9-yl)phenyl)-7-methoxy-2-methylimidazo[1,2-a]pyridine-6-carboxamide] the figure was below 1 µM. Consider `COc1cc2nc(C)cn2cc1C(=O)Nc1ccc(N2CC(CO)C3(CNC3)C2)cc1F` (stereo not drawn) [Compound 134, N-(2-fluoro-4-(8-(hydroxymethyl)-2,6-diazaspiro[3.4]octan-6-yl)phenyl)-7-methoxy-2-methylimidazo[1,2-a]pyridine-6-carboxamide], for which the activation at 5 µM is below 50%. Same read-out and setting: with `COc1cc2nc(C)cn2cc1C(=O)Nc1ccc(N2CCC3(CCNC3)CC2)cc1F` [Compound 135, N-(2-fluoro-4-(2,8-diazaspiro[4.5]decan-8-yl)phenyl)-7-methoxy-2-methylimidazo[1,2-a]pyridine-6-carboxamide] the figure was below 50%; with `COc1cc2nc(C)cn2cc1C(=O)Nc1ccc(N2CCC(NCC3CC3)CC2)cc1F` [Compound 136, N-(4-(4-((cyclopropylmethyl)amino)piperidin-1-yl)-2-fluorophenyl)-7-methoxy-2-methylimidazo[1,2-a]pyridine-6-carboxamide], 50 to 75%; with `COCCNC1CCN(c2ccc(NC(=O)c3cn4cc(C)nc4cc3OC)c(F)c2)CC1` [Compound 137, N-(2-fluoro-4-(4-((2-methoxyethyl)amino)piperidin-1-yl)phenyl)-7-methoxy-2-methylimidazo[1,2-a]pyridine-6-carboxamide], 50 to 75%. As to `COc1cc2nc(C)cn2cc1C(=O)Nc1ccc(N2CC3CCCC(C2)NC3)cc1F` (stereo not drawn) [Compound 138, N-(4-(3,9-diazabicyclo[3.3.2]decan-3-yl)-2-fluorophenyl)-7-methoxy-2-methylimidazo[1,2-a]pyridine-6-carboxamide], the activation at 5 µM is above 75%.

With `COc1cc2nc(C)cn2cc1C(=O)Nc1ccc(N2CCNCC3(CC3)C2)cc1F` [Compound 139, N-(2-fluoro-4-(5,8-diazaspiro[2.6]nonan-5-yl)phenyl)-7-methoxy-2-methylimidazo[1,2-a]pyridine-6-carboxamide], the activation at 5 µM is above 75%. In the case of `COc1cc2nc(C)cn2cc1C(=O)Nc1ccc(N2C3CCCC2CNC3)cc1F` [Compound 140, N-(4-(3,9-diazabicyclo[3.3.1]nonan-9-yl)-2-fluorophenyl)-7-methoxy-2-methylimidazo[1,2-a]pyridine-6-carboxamide], the activation at 5 µM is above 75%. For the molecule `COc1cc2nc(C)cn2cc1C(=O)Nc1ccc(N2CCCNC(CO)C2)cc1F` (stereo not drawn) [Compound 141, N-(2-fluoro-4-(3-(hydroxymethyl)-1,4-diazepan-1-yl)phenyl)-7-methoxy-2-methylimidazo[1,2-a]pyridine-6-carboxamide], the activation at 5 µM lay in the range of 50 to 75%.

With `COc1cc2nc(C)cn2cc1C(=O)Nc1ccc(N2CCN[C@@H](C(C)C)C2)cc1F` [Compound 142, (S)-N-(2-fluoro-4-(3-isopropylpiperazin-1-yl)phenyl)-7-methoxy-2-methylimidazo[1,2-a]pyridine-6-carboxamide], the activation at 5 µM was above 75%. Same read-out and setting: with `COc1cc2nc(C)cn2cc1C(=O)Nc1ccc(N2CCC3(CCN3)CC2)cc1F` [Compound 143, N-(2-fluoro-4-(1,7-diazaspiro[3.5]nonan-7-yl)phenyl)-7-methoxy-2-methylimidazo[1,2-a]pyridine-6-carboxamide] the figure was above 75%; with `COCC1CNCCN1c1ccc(NC(=O)c2cn3cc(C)nc3cc2OC)c(F)c1` (stereo not drawn) [Compound 144, N-(2-fluoro-4-(2-(methoxymethyl)piperazin-1-yl)phenyl)-7-methoxy-2-methylimidazo[1,2-a]pyridine-6-carboxamide], 50 to 75%. Regarding `COc1cc2nc(C)cn2cc1C(=O)Nc1ccc(N2CCC3(CCNC3)C2)cc1F` (stereo not drawn) [Compound 145, N-(2-fluoro-4-(2,7-diazaspiro[4.4]nonan-2-yl)phenyl)-7-methoxy-2-methylimidazo[1,2-a]pyridine-6-carboxamide], the activation at 5 µM is below 50%. Same read-out and setting: with `COc1cc2nc(C)cn2cc1C(=O)Nc1ccc(N2CCC3(CCCN3)C2)cc1F` (stereo not drawn) [Compound 146, N-(2-fluoro-4-(1,7-diazaspiro[4.4]nonan-7-yl)phenyl)-7-methoxy-2-methylimidazo[1,2-a]pyridine-6-carboxamide] the figure was below 50%.

`COc1cc2nc(C)cn2cc1C(=O)Nc1ccc(N2CC3CCCC(C2)N3)cc1F` [Compound 147, N-(4-(3,9-diazabicyclo[3.3.1]nonan-3-yl)-2-fluorophenyl)-7-methoxy-2-methylimidazo[1,2-a]pyridine-6-carboxamide] gave an IC50 below 1 µM. For `COc1cc2nc(C)cn2cc1C(=O)Nc1ccc(N2C3CCNCC2CC3)cc1F` (stereo not drawn) [Compound 148, N-(4-(3,9-diazabicyclo[4.2.1]nonan-9-yl)-2-fluorophenyl)-7-methoxy-2-methylimidazo[1,2-a]pyridine-6-carboxamide], the activation at 5 µM was below 50%. The same measure, in the same setting: next, `CCNC1CCN(c2ccc(NC(=O)c3cn4cc(C)nc4cc3OC)c(F)c2)CC1` [Compound 149, N-(4-(4-(ethylamino)piperidin-1-yl)-2-fluorophenyl)-7-methoxy-2-methylimidazo[1,2-a]pyridine-6-carboxamide]: above 75%; `COc1cc2nc(C)cn2cc1C(=O)Nc1ccc(N2CCC3(CC2)CNC3)cc1F` [Compound 150, N-(2-fluoro-4-(2,7-diazaspiro[3.5]nonan-7-yl)phenyl)-7-methoxy-2-methylimidazo[1,2-a]pyridine-6-carboxamide]: below 50%. Regarding `CCNC1CCCN(c2ccc(NC(=O)c3cn4cc(C)nc4cc3OC)c(F)c2)C1` (stereo not drawn) [Compound 151, N-(4-(3-(ethylamino)piperidin-1-yl)-2-fluorophenyl)-7-methoxy-2-methylimidazo[1,2-a]pyridine-6-carboxamide], the activation at 5 µM was below 50%.
